Reference: patent US4933369A, “Dimethyl tyrosyl amide sulfides, sulfoxides and sulfones” (G. D. Searle & Co., priority 1988, dated 1990)

How the values were obtained:
mouse = assay: Writhing assay (phenylbenzoquinone-induced writhing, analgesia); type: in vivo, Male Charles River albino mice (CD-1/HAM/lLR); parameters: key: +: The test compound was rated active if the number of writhes in the drug treatment group was significantly less than the number of writhes in the saline treatment group as determined by a one-way analysis of variance; settings: 30 min before phenylbenzoquinone, initial test dose 2 mg/kg
Procedure: Male Charles River albino mice (CD-1/HAM/lLR) weighing between 20 and 30 grams were used. Thirty minutes after subcutaneous or intragastric administration of the test compound (0.1 ml/10 gm body weight), 0.025% (w/x) phenylbenzoquinone was injected intraperitoneally (0.1 ml/10 gm body weight). Five minutes later, each mouse was placed in a large glass beaker and the number of writhes that occurred in the subsequent ten minutes is counted. A writhe consisted of dorsoflexion of the back, extension of the hind limbs and strong contraction of the abdominal musculature. The test compound was considered to have produced analgesia in a mouse if the number of writhes elicited by phenylbenzoguinone was equal to or less than 1/2 the median number of writhes recorded for the saline-treated group that day. The results were expressed as the number of mice (out of a possible 10) in which the test compound produced analgesia. […] If the initial test dose of 2 mg/kg inhibited writhing in greater than six out of ten mice, the effect of additional doses was evaluated and an ED50 value was calculated using a maximum likelihood function.

[1] = target: opiate receptors isolated from rat brain; assay: Opiate binding assay (displacement of 3H-Naloxone); settings: 3H-Naloxone 1NM, rat brain membranes, pH 7.4, 25° C., 60 min
Procedure: (§1) The test compounds were evaluated for their ability to displace the binding of ^3 H-Naloxone to opiate receptors isolated from rat brain. Male rats (Crl:CD)(SD)(BR) obtained from Charles River Laboratories (Portage, Mich.) were sacrificed by cervical dislocation. A purified homogenate of receptor membranes was prepared from the brains according to the method described by Chang and Cuatrecasas. Multiple Opiate Receptors: Enkephalins and Morphine Bind to Receptors of Different Specificity. J. Biol. Chem. 254, 2610-2618 (1979). The brains were homogenized in ten volumes of 0.32 M sucrose and centrifuged twice at 6,000×g for fifteen minutes. Following centrifugation of the supernatants at 40,000×g for thirty minutes, the pellets were resuspended in 5 mM tris HCl, and centrifuged at 6,000×g. The supernatant was centrifuged at 40,000×g. The resuspension in 5 mM tris and centrifugation was repeated twice. The final pellet was resuspended in two volumes of 50 mM tris HCl, (pH 7.4). The homogenate was assayed for protein content according to the method of Itzhaki and Gill (R. E. Itzhaki and D. N. Gill. A Micro-Biuret Method for Estimating proteins Anal. Biochem. 9, 401-410, 1964).
The binding of the test compounds to the receptor membrane preparation was measured using a modification of the method of Pert and Snyder (C. B. Pert and S. H. Snyder. Property of Opiate-Receptor Binding in Rat Brain. Proc. Natl. Acad. Sci. 70, 2243-2247, 1973). The receptor assay was run using a final concentration of 1NM^3 H-Naloxone and 0.5 mg/ml of homogenate protein. Levorphanol (1×10^-5 M) was used as the displacer for non-specific binding. The final concentration of the test compounds was 10^-5 M) The assay was run in 0.05 M tris HCl (pH 7.4). Total assayed volume was 1.0 ml.
(§2) Samples were incubated at 25° C. for sixty minutes, filtered over Whatman GF/C glass fiber filters and rinsed twice with 2.4 ml washes of ice-cold buffer. The filters were air dried at 50° C. for thirty minutes. After drying, 10 ml of PCS was added to the vial and radioactivity determined using a Tracore Analytic Mark III liquid scintillation counter with a counting efficiency of 48%.
The IC50 values, the concentration of the test compounds which inhibited ^3 H-Naloxone specific binding to the opiate receptor by 50%, were obtained from log-logit plots of concentration-response curves.

[2] = target: T1, opiate receptors isolated from rat brain (Rattus norvegicus, UniProt P33535); assay: Opiate binding assay with (D)Ala^2Glyol^5 Enkephlin as radioactive ligand
T1 construct: A purified homogenate of receptor membranes was prepared from the brains; from tissue; host or cells: brain membranes of male Crl:CD(SD)BR rats (animals from Charles River Laboratories)
T1 sequence (P33535 whole entry): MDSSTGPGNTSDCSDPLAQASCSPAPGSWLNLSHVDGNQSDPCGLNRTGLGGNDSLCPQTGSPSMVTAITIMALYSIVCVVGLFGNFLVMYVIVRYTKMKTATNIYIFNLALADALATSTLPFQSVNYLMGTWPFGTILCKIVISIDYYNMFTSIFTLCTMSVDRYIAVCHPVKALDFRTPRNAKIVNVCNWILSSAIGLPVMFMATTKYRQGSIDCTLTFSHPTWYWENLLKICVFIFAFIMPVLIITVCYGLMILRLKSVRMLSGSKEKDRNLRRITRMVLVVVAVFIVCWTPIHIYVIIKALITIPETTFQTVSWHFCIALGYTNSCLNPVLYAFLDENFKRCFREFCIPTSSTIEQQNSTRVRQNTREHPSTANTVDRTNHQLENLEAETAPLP
Procedure: as §1, with “Male” for “The test compounds were evaluated for their ability to displace the binding of ^3 H-Naloxone to opiate receptors isolated from rat brain. Male”, “The final pellet was resuspended in two volumes of 50 mM tris HCl, (pH 7.4). The homogenate was assayed for protein content according to the method of Itzhaki and Gill (R. E. Itzhaki and D. N. Gill. A Micro-Biuret Method for Estimating proteins Anal. Biochem. 9, 401-410, 1964).” left out
The binding of the test compounds to the receptor membrane preparation was measured using a modification of the method of Pert and Snyder (C. B. Pert and S. H. Snyder. Property of Opiate-Receptor Binding in Rat Brain. Proc. Natl. Acad. Sci. 70, 2243-2247, 1973). […]
as §2, with “The filters were air dried at 50° C. for thirty minutes.” left out, “48%. […]” for “48%.”

| SMILES | ACTIVE (writhing assay, subcutaneous dosing) (mouse) | IC50 [1] [nM] | IC50 [2] [nM] |
| --- | --- | --- | --- |
| Cc1cc(O)cc(C)c1CC(N)C(=O)NCCS(=O)(=O)CCCc1ccccc1 (racemic) [Example 3, (±)α-amino-4-hydroxy-2,6-dimethyl-N-[2-[(3-phenylpropyl)sulfonyl]ethyl]benzenepropanamide] | + | 0.8 | – |
| Cc1cc(O)cc(C)c1CC(N)C(=O)NCCSCCCc1ccccc1 (racemic) [Example 2, (±)α-amino-4-hydroxy-2,6-dimethyl-N-[2-[(3-phenylpropyl)thio]ethyl]benzenepropanamide] | – | 2.2 | – |
| Cc1cc(O)cc(C)c1CC(N)C(=O)NCC[S+]([O-])CCCc1ccccc1 (racemic) [Example 4, (±)α-amino-4-hydroxy-2,6-dimethyl-N-[2-[(3-phenylpropyl)sulfinyl]ethyl]benzenepropanamide] | + | 2.8 | – |
| Cc1cc(O)cc(C)c1CC(N)C(=O)NCCCSCc1ccccc1 (racemic) [Example 7, (±)α-amino-4-hydroxy-2,6-dimethyl-N-[3-[(phenylmethyl)thio]propyl]benzenepropanamide] | + | 21 | – |
| Cc1cc(O)cc(C)c1C[C@H](N)C(=O)NCCCSc1ccccc1 [Example 9, (L)α-amino-4-hydroxy-2,6-dimethyl-N-[3-(phenylthio)propyl]benzenepropanamide] | – | – | 20.9 |
| Cc1cc(O)cc(C)c1CC(N)C(=O)NCCCCSCc1ccccc1 (racemic) [Example 8, (±)α-amino-4-hydroxy-2,6-dimethyl-N-[4-(phenylmethyl)thio]butyl]benzenepropanamide] | + | – | – |
| Cc1cc(O)cc(C)c1CC(N)C(=O)NCCCSCCc1ccccc1 (racemic) [Example 5, (±) α-2,6-dimethyl-N-[3-[(2-phenylethyl)thio]propyl]benzenepropanamide] | + | – | 3.6 |
| Cc1cc(O)cc(C)c1CC(N)C(=O)NCCCS(=O)(=O)CCc1ccccc1 (racemic) [Example 6, (±)α-amino-4-hydroxy-2,6-dimethyl-N-[3-[(2-phenylethyl)sulfonyl]-propyl]benzenepropanamide] | – | 0.9 | – |
